The experiment deals with T1, CIB1 and αIIb interaction (CIB1-GST : F-αIIb peptide) (Homo sapiens, UniProt Q99828).
T1 construct: made in house; host or cells: BL-21 plus RIL cells (E. coli)
T1 sequence (Q99828 1-191): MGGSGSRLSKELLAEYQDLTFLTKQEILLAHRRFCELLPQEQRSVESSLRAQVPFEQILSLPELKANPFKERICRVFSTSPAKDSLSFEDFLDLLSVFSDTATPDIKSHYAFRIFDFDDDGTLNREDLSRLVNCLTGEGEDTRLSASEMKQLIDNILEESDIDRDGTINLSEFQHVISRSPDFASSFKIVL
As to the kind of experiment: FP assay, 1536-well qHTS format (primary and confirmatory screen). The conditions noted are these: for Efficacy (%): negative = inhibition; for Curve Class: negative sign = inhibitory curve; for IC50: read-out: IC50. It counts as binding.

Where [1] appears, read: qHTS primary screen hits, Table S2.
[2] abbreviates: qHTS primary screen hits, Table S2, several classes where COUNT > 1.
Where [3] appears, read: qHTS primary screen of LOPAC/NPACT libraries.

Structures are written as SMILES. Read-outs that look alike come from different tables or passages of the source.

In the case of `Cn1ccc(=Nc2ccc(NC(=O)c3ccc(/N=c4/ccn(C)c5ccc([N+](=O)[O-])cc45)cc3)cc2)cc1.O=C(O)C(F)(F)F` [NCGC00356208-01], under setting [1], the “Efficacy (%)” value is given as -35% and the IC50 was found to be 56.2 µM. Under setting [2], the “Curve Class” value is listed as -2.4.

On to `CN(C)CC/C=C1/c2ccccc2Sc2cc(Cl)ccc21.Cl` [NCGC00162079-02], for which, under setting [3], the “Efficacy (%)” value is listed as -13%, the “Curve Class” value is listed as -2.4 and the IC50 came to 70.8 µM.

Regarding `Cl.Cl.O=C(O)c1cn(-c2ccc(F)cc2)c2cc(N3CCNCC3)c(F)cc2c1=O` [NCGC00177995-02], under setting [1], the “Efficacy (%)” value was -41% and the IC50 was 39.8 µM. The “Curve Class” value under setting [2] is recorded as -3.

Turning to `COc1cccc2c1C(=O)c1c(O)c3c(c(O)c1C2=O)C[C@@](O)(C(=O)CO)CC3OC1CC(N2CCOC(OC)C2)C(O)C(C)O1` (stereo partly shown) [NCGC00319019-01], under setting [1], the “Efficacy (%)” value was -40%, the “Curve Class” value is on record as -1.4 and the IC50 was determined as 10 µM.

For the compound `O=C1NC(c2cccc([N+](=O)[O-])c2)=CCN1c1ccccc1O` [NCGC00015571-05], under setting [1], the “Efficacy (%)” value is reported as -18% and the IC50 worked out at 50.1 µM. The “Curve Class” value under setting [2] is on record as -2.2.

For the compound `Cc1ccc(O)c2ncccc12` [NCGC00164506-02], under setting [1], the “Efficacy (%)” value is reported as -50%, the “Curve Class” value was -2.2 and the concentration for half-maximal inhibition (IC50) stood at 44.7 µM.

As for `O=C1c2ccccc2C(=O)c2c(NCCc3ccc(O)cc3)ccc(NCCc3ccc(O)cc3)c21` [NCGC00186017-01], under setting [1], the “Efficacy (%)” value is given as -32%, the “Curve Class” value is -2.2 and the IC50 came to 31.6 µM.

Take `O=C1c2c(O)cc(O)cc2OC(c2ccc(O)c(O)c2)C1O` (stereo not shown) [NCGC00261882-01]: under setting [3], the “Efficacy (%)” value is -14%, the “Curve Class” value was -1.2 and the IC50 is 10 µM.

In the case of `CCCc1c(OCCCOc2ccc(OCC(=O)O)cc2)ccc(C(C)=O)c1O` [NCGC00015599-05], under setting [3], the “Efficacy (%)” value was -25%, the “Curve Class” value was -2.2 and the IC50 is 50.1 µM.

As for `O=c1[nH]c2cc([N+](=O)[O-])c([N+](=O)[O-])cc2[nH]c1=O` [NCGC00015319-06], under setting [1], the “Efficacy (%)” value was -48%, the “Curve Class” value is on record as -2.2 and the IC50 came out at 31.6 µM.

On to `CN(NC(=O)CC(=O)NN(C)C(=S)c1ccccc1)C(=S)c1ccccc1` [NCGC00183656-09], for which, under setting [3], the “Efficacy (%)” value is on record as -33%, the “Curve Class” value is reported as -2.4 and the concentration for half-maximal inhibition (IC50) was determined as 35.5 µM.

For `O=C(O)c1ccccc1Nc1cccc(OCc2ccc3ccccc3n2)c1` [NCGC00015965-05], under setting [1], the “Efficacy (%)” value is given as -42%, the “Curve Class” value is -2.2 and the IC50 was 50.1 µM.

Turning to `CCC(=O)NC(c1cccs1)c1ccc2cccnc2c1O` (stereo not shown) [NCGC00182903-03], under setting [1], the “Efficacy (%)” value is listed as -26%, the “Curve Class” value is reported as -2.4 and the concentration for half-maximal inhibition (IC50) was 50.1 µM.

As for `O=C(N/N=C/c1ccc([N+](=O)[O-])o1)c1ccc(O)cc1` [NCGC00179496-04], the half-maximal inhibitory concentration (IC50) under setting [1] worked out at 44.7 µM.

For `Clc1ccccc1C(c1ccccc1)(c1ccccc1)n1ccnc1` [NCGC00015251-09], under setting [3], the “Efficacy (%)” value was -14%, the “Curve Class” value is listed as -2.4 and the IC50 came out at 20 µM.

On to `N#Cc1ccc(NS(=O)(=O)c2ccc(NC(=O)Cc3ccc(Cl)c(Cl)c3)cc2)cc1.O=C(O)C(F)(F)F` [NCGC00253445-02], for which, where the note is “qHTS FP screen hits, Table S2”, the “Efficacy (%)” value is -18% and the IC50 came out at 3.5 µM.

In the case of `COc1ccc(Nc2cc(C)nc(-n3nc(C)cc3C)n2)cc1Cl.O=C(O)C(F)(F)F` [NCGC00134126-02], under setting [1], the “Efficacy (%)” value is listed as -30% and the IC50 amounted to 50.1 µM. Moreover, the “Curve Class” value under setting [2] was -2.4.

For `COc1ccnc2c1CCCCC2[S+]([O-])c1nc2ccccc2[nH]1` (stereo not shown) [NCGC00253591-01], under setting [1], the “Efficacy (%)” value is reported as -30% and the half-inhibitory concentration (IC50) was determined as 56.2 µM. Also, under setting [2], the “Curve Class” value is on record as -2.2.

Consider `O=C(O)C(F)(F)F.O=C(O)c1csc(-n2nc(-c3ccc(F)c(Cc4ccccc4)c3)cc2O)n1` [NCGC00356005-01], for which, under setting [1], the “Efficacy (%)” value is given as -47% and the IC50 came out at 79.4 µM. For the same compound, under setting [2], the “Curve Class” value is on record as -2.2.

As to `COc1c(C)c(OCC(O)C(C)(C)O)cc2c1CNC2=O` (stereo not shown) [NCGC00385487-01], under setting [3], the “Efficacy (%)” value is on record as -28%, the “Curve Class” value was -2.4 and the IC50 amounted to 56.2 µM.

`CC1OC2OC(=O)C3(C)CC4C5(CO5)C5=CC(=O)OC(C)(C)C5=CC(=O)C4(C)C(C1=O)C23` (stereo not shown) [NCGC00380663-01]: where the note is “qHTS primary screen hits, Table S2, NPACT library”, the “Curve Class” value is recorded as -2.2. In addition, under setting [1], the “Efficacy (%)” value was -57% and the half-inhibitory concentration (IC50) came to 31.6 µM.

On to `C=C1CC2OC(=O)C(=C)C2C(OC(=O)/C(C)=C\C)CC2(C)OC1=CC2=O` (stereo not shown) [NCGC00384607-01], for which, under setting [3], the “Efficacy (%)” value is reported as -25%, the “Curve Class” value was -1.4 and the IC50 is 11.2 µM.

In the case of `NC(=O)c1cc[n+](CC2=C(C(=O)O)N3C(=O)[C@@H](NC(=O)[C@@H](c4ccccc4)S(=O)(=O)[O-])[C@H]3SC2)cc1` [NCGC00162106-03], under setting [3], the “Efficacy (%)” value is recorded as -20%, the “Curve Class” value is -2.2 and the IC50 stood at 50.1 µM.

For `CN(N=O)c1cc(O)ccc1O` [NCGC00015372-04], under setting [1], the “Efficacy (%)” value is -50%, the “Curve Class” value is reported as -2.2 and the IC50 worked out at 50.1 µM.

As for `O=C(O)CCc1nc(-c2ccccc2)c(-c2ccccc2)o1` [NCGC00014711-11], under setting [3], the “Efficacy (%)” value is -11%, the “Curve Class” value is reported as -2.4 and the IC50 amounted to 89.1 µM.

As for `CC(=O)NCc1ccc(-c2csc(Nc3cc(C)cc(C)c3)n2)o1.O=C(O)C(F)(F)F` [NCGC00314997-03], under setting [1], the “Efficacy (%)” value is listed as -84% and the IC50 is 50.1 µM. Further, the “Curve Class” value under setting [2] was -2.4.

With `O=C(O)C(F)(F)F.Oc1cc(NCCN2CCOCC2)cc2cccnc12` [NCGC00183799-01], under setting [1], the “Efficacy (%)” value is listed as -45% and the IC50 came to 50.1 µM. Besides, the “Curve Class” value under setting [2] is -2.2.

Take `Cc1c(O)cc2c(c1O)COC1(O)CCCOC21` (stereo not shown) [NCGC00380856-01]: under setting [3], the “Efficacy (%)” value is -23%, the “Curve Class” value is recorded as -2.4 and the IC50 is 50.1 µM.

As for `Cc1cc(S(=O)(=O)Nc2cnccc2C(=O)Nc2nc(-c3ccccc3)cs2)c(C)o1.O=C(O)C(F)(F)F` [NCGC00345029-02], for the setting “qHTS FP screen hits, Table S2”, the “Efficacy (%)” value is listed as -46% and the IC50 came out at 38.1 µM.

In the case of `CN1CCC2(CCN3CCc4c(oc5ccccc45)C3C2)N(C)C1=O.Cl` (stereo not shown) [NCGC00015699-03], under setting [3], the “Efficacy (%)” value was -11%, the “Curve Class” value is -1.4 and the concentration for half-maximal inhibition (IC50) is 17.8 µM.

For the compound `CC(=O)Nc1sc2c(c1-c1nc3ccccc3s1)CCN(C1COC1)C2.O=C(O)C(F)(F)F` [NCGC00241066-01], under setting [1], the “Efficacy (%)” value is on record as -83% and the IC50 was 14.1 µM. The “Curve Class” value under setting [2] is -1.2.

On to `COc1cccc(CNc2ccc(S(=O)(=O)Nc3nc(-c4ccccc4)cs3)cc2)c1O.O=C(O)C(F)(F)F` [NCGC00346865-01], for which, under setting [1], the “Efficacy (%)” value is listed as -34%, the “Curve Class” value is -2.4 and the IC50 is 50.1 µM.

With `CCOC(=O)OC(C)OC(=O)c1csc(-n2nc(-c3ccc(F)c(F)c3)cc2O)n1.O=C(O)C(F)(F)F` (stereo not shown) [NCGC00356024-01], under setting [1], the “Efficacy (%)” value was -35% and the IC50 stood at 79.4 µM. Further, the “Curve Class” value under setting [2] was -2.4.

Turning to `CSc1ccc(/C=C2/C(C)=C(CC(=O)O)c3cc(F)ccc32)cc1` [NCGC00161601-02], under setting [1], the “Efficacy (%)” value was -32% and the IC50 is 79.4 µM. In addition, the “Curve Class” value under setting [2] is -2.4.

With `O=C(O)C1NCc2[nH]cnc2C1c1ccccc1` (stereo not shown) [NCGC00167998-01], under setting [1], the “Efficacy (%)” value is on record as -28%, the “Curve Class” value is -2.4 and the half-inhibitory concentration (IC50) was found to be 50.1 µM.

On to `C=C1C(=O)O[C@@H]2C(OC(=O)/C(C)=C\C)/C(C)=C\C(=O)/C=C(\C)C[C@H](O)[C@@H]12` (stereo partly shown) [NCGC00381208-01], for which, under setting [3], the “Efficacy (%)” value was -28%, the “Curve Class” value is reported as -1.4 and the IC50 is 1.6 µM.

With `Cc1ccc(CNc2ncnc3ccc(-c4ccc([C@@H](C)O)o4)cc23)o1` [NCGC00189252-01], for the setting “qHTS FP screen hits, Table S2”, the “Efficacy (%)” value is -27% and the IC50 was found to be 12.6 µM.

As for `O=C(Nc1ccc(Cl)c(Cl)c1)Nc1nnc(N2CCNCC2)s1.O=C(O)C(F)(F)F` [NCGC00238616-01], under setting [1], the “Efficacy (%)” value is given as -35% and the IC50 is 79.4 µM. The “Curve Class” value under setting [2] is -2.4.

`N#CC(=C(\N)Sc1ccccc1N)/C(C#N)=C(/N)Sc1ccccc1N` [NCGC00094462-03]: under setting [3], the “Efficacy (%)” value is recorded as -18%, the “Curve Class” value is listed as -3 and the IC50 stood at 20 µM.

On to `O=C(O)C(F)(F)F.O=C1CC(c2ccc(F)cc2F)c2sc(N3CCOCC3)nc2N1` (stereo not shown) [NCGC00488253-02], for which, under setting [1], the “Efficacy (%)” value is reported as -42% and the IC50 was 50.1 µM. Moreover, the “Curve Class” value under setting [2] was -2.4.

Consider `COc1ccc(S(=O)(=O)Nc2nc(-c3cccc([N+](=O)[O-])c3)cs2)cc1OC` [NCGC00370730-07], for which, under setting [3], the “Efficacy (%)” value is reported as -22%, the “Curve Class” value is given as -1.4 and the IC50 turned out to be 22.4 µM.

The values above are taken from publication PMC11249646, “Small-Molecule Disruptors of the Interaction between Calcium- and Integrin-Binding Protein 1 and Integrin αIIbβ3 as Novel Antiplatelet Agents” (ACS Pharmacology & Translational Science, 2024).
